From patent publication US20230364194A1, “GLP-1R/GCGR Dual Target Agonist Polypeptide Derivative for Treatment of Hepatic Fibrosis Associated with Viral Hepatitis” (Shenzhen Turier Biotech. Co., Ltd., priority 2020, published 2023)
Starred links: 1 amine or outer side, 2 acyl side, 3 side chain; linkers in the order of their positions; H or OH if unused. Non-standard residues stand in square brackets, D forms with d. Groups on a side chain read outwards from the residue. Primed or numbered codes have the meaning given here. No end group written: not given here. *: point of attachment. C18 diacid = O=C(O)CCCCCCCCCCCCCCCCC(=O)*; C16 diacid = O=C(O)CCCCCCCCCCCCCCC(=O)*; γGlu = O=C(O)[C@H](CCC(=O)[*:2])N[*:1]; Stearoyl = CCCCCCCCCCCCCCCCCC(=O)*; Palmitoyl = CCCCCCCCCCCCCCCC(=O)*; PEG2′ = not defined here; Aib = CC(C)(N)C(=O)O

Tested on: Hepatic stellate cell strain LX-2
Experiment: In vitro effect on expression of LX-2 cell activation marker α-SMA (Western Blot, β-actin reference)
Format: cell-based
Conditions: LX-2 cells, 10.0 uM, 48 hours, negative control = 100%
Description: Hepatic stellate cell strain LX-2 (from China Center for Type Culture Collection, Shanghai) was selected to study and observe the effects of polypeptide compounds 1-25 on the expression level of LX-2 cell activation marker α-smooth muscle actin (α-SMA). The control group was given the same volume of Dulbecco’s modified Eagle medium (DMEM) (from Gibco, United States), and β-actin (from TransGen Biotech) as the endogenous reference, wherein, α-SMA is a symbolic feature that distinguishes […] from myofibroblasts.
Hepatic stellate cell LX-2 was laid on 35 mm cell culture plate, cultured with DMEM (high glucose)+10% FBS+1% double-antibody culture medium (Thermo Fisher), placed overnight when the cells grew to 70% convergence at 37° C. under the condition of 5% CO2 without serum, and treated with the above GLP-1R/GCGR dual target agonist polypeptide derivatives (namely, polypeptide compounds 1-25) (dissolved in PBS) for 48 hours from the next morning to extract cell protein, and then Western Blot was performed with β-actin as endogenous reference to analyze the expression levels of α-SMA and β-actin by gray-scale analysis using Image J 1.50i. PBS with the same volume as that in experimental group was added in negative control.
The above polypeptide compounds 1-25 with a concentration of 10.0 µM were added, showing that they could reduce the expression of α-SMA at the concentration of 10.0 µM; and the negative control had no effect on the expression of α-SMA (referring to Table 2).
The integrated gray scale of α-SMA/β-actin in the negative control group was considered to be 100% to analyze the in vitro inhibitory activity on hepatic fibrosis by tested polypeptides.

Substance	Relative expression of α-SMA (α-SMA/β-actin, %) [%]
His-(D-Ser)-Gln-Gly-Thr-Phe-Thr-Ser-Asp-Tyr-Ser-Lys-Tyr-Leu-Asp-Glu-Lys(PEG2-PEG2-γGlu-CO(CH2)16CO2H)-Ala- Ala-His-Asp-Phe-Val-Glu-Trp-Leu-Leu-Asn-Gly-Gly-Gly-Pro-Ser-Ser-Gly-Ala-Pro-Pro-Pro-Ser-NH2 (H[dS]QGTFTSDYSKYLDEK([PEG2′-PEG2′-γGlu-C18 diacid])AAHDFVEWLLNGGGPSSGAPPPS-NH2) [Compound 9]	40.89
His-(D-Ser)-Gln-Gly-Thr-Phe-Thr-Ser-Asp-Tyr-Ser-Lys-Tyr-Leu-Asp-Glu-Lys-Ala-Ala-Lys(PEG2-PEG2-yGlu- CO(CH2)16CO2H)-Glu-Phe-Ile-Glu-Trp-Leu-Leu-Asn-Gly- Gly-Gly-Pro-Ser-Ser-Gly-Ala-Pro-Pro-Pro-Ser-NH2 (H[dS]QGTFTSDYSKYLDEKAAK([PEG2′-PEG2′-γGlu-C18 diacid])EFIEWLLNGGGPSSGAPPPS-NH2) [Compound 12]	41.99
His-(D-Ser)-Gln-Gly-Thr-Phe-Thr-Ser-Asp-Tyr-Ser-Lys-Tyr-Leu-Asp-Glu-Lys-Ala-Ala-Lys(PEG2-PEG2-γGlu- CO(CH2)14C3)-Glu-Phe-Ile-Glu-Trp-Leu-Leu-Arg-Gly-Gly- Gly-Pro-Ser-Ser-Gly-Ala-Pro-Pro-Pro-Ser-NH2 (H[dS]QGTFTSDYSKYLDEKAAK([PEG2′-PEG2′-γGlu-Palmitoyl])EFIEWLLRGGGPSSGAPPPS-NH2) [Compound 10]	46.35
His-(D-Ser)-Gln-Gly-Thr-Phe-Thr-Ser-Asp-Tyr-Ser-Lys-Tyr-Leu-Asp-Glu-Lys-Ala-Ala-Lys(PEG2-PEG2-γGlu- CO(CH2)16CH3)-Glu-Phe-Ile-Glu-Trp-Leu-Leu-Asn-Gly-Gly- Gly-Pro-Ser-Ser-Gly-Ala-Pro-Pro-Pro-Ser-NH2 (H[dS]QGTFTSDYSKYLDEKAAK([PEG2′-PEG2′-γGlu-Stearoyl])EFIEWLLNGGGPSSGAPPPS-NH2) [Compound 14]	47.85
His-(D-Ser)-Gln-Gly-Thr-Phe-Thr-Ser-Asp-Tyr-Ser-Lys-Tyr-Leu-Asp-Glu-Lys-Ala-Ala-Lys(PEG2-PEG2-γGlu- CO(CH2)16CO2H)-Glu-Phe-Ile-Glu-Trp-Leu-Leu-Arg-Thr-Gly- Gly-Pro-Ser-Ser-Gly-Ala-Pro-Pro-Pro-Ser-NH2 (H[dS]QGTFTSDYSKYLDEKAAK([PEG2′-PEG2′-γGlu-C18 diacid])EFIEWLLRTGGPSSGAPPPS-NH2) [Compound 8]	39.92
His-(D-Ser)-Gln-Gly-Thr-Phe-Thr-Ser-Asp-Tyr-Ser-Lys-Tyr-Leu-Asp-Glu-Lys-Ala-Ala-Lys(PEG2-PEG2-γGlu-CO(CH2)14CO2H)-Glu-Phe-Ile-Glu-Trp-Leu-Leu-Asn-Gly- Gly-Gly-Pro-Ser-Ser-Gly-Ala-Pro-Pro-Pro-Ser-NH2 (H[dS]QGTFTSDYSKYLDEKAAK([PEG2′-PEG2′-γGlu-C16 diacid])EFIEWLLNGGGPSSGAPPPS-NH2) [Compound 13]	40.46
His-(D-Ser)-Gln-Gly-Thr-Phe-Thr-Ser-Asp-Tyr-Ser-Lys-Tyr-Leu-Asp-Lys(PEG2-PEG2-CO(CH2)16CO2H)-Arg-Arg-Ala- Gln-Asp-Phe-Val-Gln-Trp-Leu-Met-Asn-Thr-Gly-Gly-Pro-Ser-Ser-Gly-Ala-Pro-Pro-Pro-Ser-NH2 (H[dS]QGTFTSDYSKYLDK([PEG2′-PEG2′-C18 diacid])RRAQDFVQWLMNTGGPSSGAPPPS-NH2) [Compound 18]	45.95
His-(D-Ser)-Gln-Gly-Thr-Phe-Thr-Ser-Asp-Tyr-Ser-Lys-Tyr-Leu-Asp-Lys(PEG2-PEG2-CO(CH2)16CO2H)-Arg-Arg-Ala- Gln-Asp-Phe-Val-Gln-Trp-Leu-Nle-Asn-Thr-Gly-Gly-Pro-Ser-Ser-Gly-Ala-Pro-Pro-Pro-Ser-NH2 (HXQGTFTSDYSKYLDKRRAQDFVQWLXNTGGPSSGAPPPS; D-Ser; Nle; PEG2-PEG2-C18 diacid lipidation; C-terminal amide; (2)..(2) Xaa=D-Ser; (16)..(16) A side chain of Lys is linked to -PEG2-PEG2-CO(CH2)16CO2H; (27)..(27) Xaa=Nle) [Compound 24]	52.65
His-(D-Ser)-Gln-Gly-Thr-Phe-Thr-Ser-Asp-Tyr-Ser-Lys-Tyr-Leu-Asp-Lys(PEG2-PEG2-yGlu-CO(CH2)16CO2H)-Arg-Arg- Ala-Gln-Asp-Phe-Val-Gln-Trp-Leu-Leu-Asn-Thr-Gly-Gly-Pro-Ser -Ser-Gly-Ala-Pro-Pro-Pro-Ser-NH2 (H[dS]QGTFTSDYSKYLDK([PEG2′-PEG2′-γGlu-C18 diacid])RRAQDFVQWLLNTGGPSSGAPPPS-NH2) [Compound 22]	48.76
His-(D-Ser)-Gln-Gly-Thr-Phe-Thr-Ser-Asp-Tyr-Ser-Lys-Tyr-Leu-Asp-Lys(PEG2-PEG2-yGlu-CO(CH2)16CO2H)-Arg-Arg- Ala-Gln-Asp-Phe-Val-Gln-Trp-Leu-Nle-Asn-Thr-Gly-Gly-Pro-Ser -Ser-Gly-Ala-Pro-Pro-Pro-Ser-NH2 (HXQGTFTSDYSKYLDKRRAQDFVQWLXNTGGPSSGAPPPS; D-Ser; Nle; PEG2-PEG2-γGlu-C18 diacid lipidation; C-terminal amide; (2)..(2) Xaa=D-Ser; (16)..(16) A side chain of Lys is linked to -PEG2-PEG2-AGlu-CO(CH2)16CO2H; (27)..(27) Xaa=Nle) [Compound 21]	43.39
His-(D-Ser)-Gln-Gly-Thr-Phe-Thr-Ser-Asp-Tyr-Ser-Lys-Tyr-Leu-Asp-Lys(PEG2-PEG2-γGlu-CO(CH2)14CH3)-Arg-Arg-Ala- Gln-Asp-Phe-Val-Gln-Trp-Leu-Met-Asn-Thr-Gly-Gly-Pro-Ser-Ser-Gly-Ala-Pro-Pro-Pro-Ser-NH2 (H[dS]QGTFTSDYSKYLDK([PEG2′-PEG2′-γGlu-Palmitoyl])RRAQDFVQWLMNTGGPSSGAPPPS-NH2) [Compound 1]	57.59
His-(D-Ser)-Gln-Gly-Thr-Phe-Thr-Ser-Asp-Tyr-Ser-Lys-Tyr-Leu-Asp-Lys(PEG2-PEG2-γGlu-CO(CH2)16CH3)-Arg-Arg-Ala- Gln-Asp-Phe-Val-Gln-Trp-Leu-Met-Asn-Thr-Gly-Gly-Pro-Ser-Ser-Gly-Ala-Pro-Pro-Pro-Ser-NH2 (H[dS]QGTFTSDYSKYLDK([PEG2′-PEG2′-γGlu-Stearoyl])RRAQDFVQWLMNTGGPSSGAPPPS-NH2) [Compound 19]	44.78
His-(D-Ser)-Gln-Gly-Thr-Phe-Thr-Ser-Asp-Tyr-Ser-Lys-Tyr-Leu-Asp-Lys(PEG2-PEG2-γGlu-CO(CH2)16CO2H)-Arg-Arg- Ala-Gln-Asp-Phe-Val-Gln-Trp-Leu-Met-Asn-Thr-Gly-Gly-Pro-Ser-Ser-Gly-Ala-Pro-Pro-Pro-Ser-NH2 (H[dS]QGTFTSDYSKYLDK([PEG2′-PEG2′-γGlu-C18 diacid])RRAQDFVQWLMNTGGPSSGAPPPS-NH2) [Compound 17]	38.78
His-(D-Ser)-Gln-Gly-Thr-Phe-Thr-Ser-Asp-Tyr-Ser-Lys-Tyr-Leu-Asp-Lys-Lys(PEG2-PEG2-γGlu-CO(CH2)14CH3)-Arg-Ala- Gln-Asp-Phe-Val-Gln-Trp-Leu-Met-Asn-Thr-Gly-Gly-Pro-Ser-Ser-Gly-Ala-Pro-Pro-Pro-Ser-NH2 (H[dS]QGTFTSDYSKYLDKK([PEG2′-PEG2′-γGlu-Palmitoyl])RAQDFVQWLMNTGGPSSGAPPPS-NH2) [Compound 16]	40.86
His-(D-Ser)-Gln-Gly-Thr-Phe-Thr-Ser-Asp-Tyr-Ser-Lys-Tyr-Leu-Asp-Lys-Lys(PEG2-PEG2-γGlu-CO(CH2)16CO2H)-Ala- Ala-His-Asp-Phe-Val-Glu-Trp-Leu-Leu-Arg-Thr-Gly-Gly-Pro-Ser-Ser-Gly-Ala-Pro-Pro-Pro-Ser-NH2 [Compound 7]	46.53
His-Aib-Gln-Gly-Thr-Phe-Thr-Ser-Asp-Lys(PEG2-PEG2-yGlu- CO(CH2)14CH3)-Ser-Lys-Tyr-Leu-Asp-Glu-Arg-Arg-Ala-Gln- Asp-Phe-Val-Gln-Trp-Leu-Leu-Asp-Gly-Gly-Gly-Pro-Ser-Ser-Gly-Ala-Pro-Pro-Pro-Ser-NH2 (H[Aib]QGTFTSDK([PEG2′-PEG2′-γGlu-Palmitoyl])SKYLDERRAQDFVQWLLDGGGPSSGAPPPS-NH2) [Compound 6]	42.34
His-Aib-Gln-Gly-Thr-Phe-Thr-Ser-Asp-Lys(PEG2-PEG2-yGlu- CO(CH2)16CH3)-Ser-Lys-Tyr-Leu-Asp-Glu-Arg-Arg-Ala-Gln- Asp-Phe-Val-Gln-Trp-Leu-Leu-Asp-Gly-Gly-Pro-Ser-Ser-Gly-Ala-Pro-Pro-Pro-Ser-NH2 (H[Aib]QGTFTSDK([PEG2′-PEG2′-γGlu-Stearoyl])SKYLDERRAQDFVQWLLDGGPSSGAPPPS-NH2) [Compound 4]	40.19
His-Aib-Gln-Gly-Thr-Phe-Thr-Ser-Asp-Lys(PEG2-PEG2-γGlu- CO(CH2)14CO2H)-Ser-Lys-Tyr-Leu-Asp-Glu-Arg-Arg-Ala- Gln-Asp-Phe-Val-Gln-Trp-Leu-Leu-Asp-Gly-Gly-Gly-Pro-Ser-Ser-Gly-Ala-Pro-Pro-Pro-Ser-NH2 (H[Aib]QGTFTSDK([PEG2′-PEG2′-γGlu-C16 diacid])SKYLDERRAQDFVQWLLDGGGPSSGAPPPS-NH2) [Compound 3]	45.28
